We go through one compound from patent publication US5292734A, “Angiotensin II receptor blocking 2,3,6 substituted quinazolinones” (American Cyanamid Company, priority 1993, dated 1994).

A word on the IC50: it is the point on the concentration scale where inhibition reaches its midpoint.

In the test the target is T1, Angiotensin II Receptor (Bos taurus, UniProt P25104).
T1 construct: The brownish tissue forming the adrenal cortex is scraped off and finely minced with scissors before homogenization; from tissue; host or cells: beef adrenal cortex, microsomal membranes (100,000 x g pellet)
T1 sequence (P25104 1-359): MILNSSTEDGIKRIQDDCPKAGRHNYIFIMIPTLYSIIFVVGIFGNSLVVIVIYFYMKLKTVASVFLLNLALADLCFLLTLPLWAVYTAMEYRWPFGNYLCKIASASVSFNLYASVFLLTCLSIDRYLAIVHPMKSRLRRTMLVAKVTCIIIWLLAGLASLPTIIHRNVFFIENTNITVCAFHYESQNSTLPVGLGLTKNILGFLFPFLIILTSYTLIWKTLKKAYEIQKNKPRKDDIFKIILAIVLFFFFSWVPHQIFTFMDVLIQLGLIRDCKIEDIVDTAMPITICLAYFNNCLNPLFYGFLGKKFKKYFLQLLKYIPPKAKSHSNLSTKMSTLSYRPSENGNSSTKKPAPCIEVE
Briefly: Receptor binding assay: binding of [^125 I](Sar^1,Ile^8)AngII. Particulars: beef adrenal cortex membranes, 60 min, room temperature. The text has this:
Beef adrenals are obtained from a local slaughter house (Maxwell-Cohen). [^125 I](Sar^1,Ile^8)AngII, S. A. 2200 Ci/mmole, is purchased from Dupont (NEN®, Boston, Mass.). All unlabeled AngII analogs, Dimethylsulfoxide (DMSO), nucleotides, bovine serum albumin (BSA) are purchased from Sigma Chemical Co., St. Louis, Mo. U.S.A.
Approximately sixteen (16) to twenty (20) beef adrenal glands are processed as follows: fresh adrenal glands received on crushed ice are cleaned of fatty tissues and the tough membranes encapsulating the glands are removed and discarded. […] A 100 ul aliquot is withdrawn and the protein content of the preparation is determined by the Lowry's method (Lowry, O. H., Rosebrough, N. P., Farr, A. L. and Randall, R. J., Protein measurement with Polin phenol reagent. J. Biol. Chem., […], 265-275, 1951). […]
The binding of [^125 I](Sar^1 Ile^8)AngII to microsomal membranes is initiated by the addition of reconstituted membranes (1:10 vols.) in freshly made 50.0 mM Tris.HCl buffer, pH 7.4 containing 0.25% heat inactivated bovine serum albumin (BSA): 80 ul membrane protein (10 to 20 ug/assay) to wells already containing 100 ul of incubation buffer (as described above) and 20 ul [^125 I](Sar^1 Ile^8)AngII (Specific Activity, 2200 Ci/mmole). Non-specific binding is measured in the presence of 1.0 uM unlabeled (Sar^1,Ile^8)AngII, added in 20 ul volume. […]

Compound `CCCCc1nc2ccc(C(C)(O)CC3CCCN3)cc2c(=O)n1Cc1ccc(-c2ccccc2-c2nnn[nH]2)cc1` (stereo not drawn) [Example 79, CIS-2-Butyl-6-[1-hydroxy-1-methyl-2-(2-pyrrolidinyl)ethyl]-3-[[21-(1H-tetrazol-5-yl)[1,1'-biphenyl]-4-yl]methyl]-4(3H)-quinazolinone] gave an IC50 of 3.5 nM.
